In patent US20050112185A1, “Positively charged lipid and liposome with the lipid” (priority 2002, published 2005):

Experiments:
[1] = test system: 293 human kidney cell line; assay: Gene delivery efficiency (luciferase gene) with varied amounts of DNA, 293 cells; type: cell-based; conditions: DNA:liposome 1:12 (w/w), luciferase gene 0.5, 1, 2 and 5 μg tested, FIGS. 1a-1c
Method: (§1) For the evaluation of gene delivery efficiency of liposomes with varied amount of DNA, DNA-liposome complex was prepared by mixing DNA and liposome(1:12, w/w) in 500 μl of serum-free medium, while varying the amounts of luciferase gene as 0.5 μg, 1 μg, 2 μg and 5 μg. […] After incubation, media were discarded, cells were lysed by adding 100 μl of Luciferase cell culture lysis reagent(Promega, USA), and centrifuged at 14000 rpm for 10 sec. And then, 10 μl of supernatant was mixed with 20 μl of a substrate of luciferase, and luminescence was measured by using Luminometer(Mini lumat LB9506, EG&G BERTHOLD). Proteins in each well were quantitated by DC protein assay(Bio-rad, USA)(see: FIGS. 1a-1c and 2a-2c).

[2] = test system: mouse melanoma cell B16BL6; assay: Gene delivery efficiency (luciferase gene) with varied amounts of DNA, B16BL6 cells; type: cell-based; conditions: DNA:liposome 1:12 (w/w), luciferase gene 0.5, 1, 2 and 5 μg tested, FIGS. 2a-2c
Method: Mouse melanoma cells […] were inoculated in MEM(minimum essential medium, Gibco-BRL, USA) containing 5% (v/v) fetal bovine serum, streptomycin and penicillin, and incubated in an incubator(NAPCO, USA) under an environment of 5% (v/v) CO2 at 37° C., which were aliquoted in 24-well plate to reach the cell density of 1×10^5 cell/well or 5×10^4 cell/well, and further incubated for 24 hrs to stabilize the cells.
as §1

Substance | amount of DNA showing the highest gene delivery efficiency [1] | amount of DNA showing the highest gene delivery efficiency [2]
lysine-aspartate-hexadecanol [KD-DP] | 2 µg | 0.5 µg
lysine-aspartate-tetradecanol [KD-DM] | 1 µg | 1 µg
lysine-glutamate-tetradecanol [KE-DM] | 2 µg | –
